Reference: patent publication US20200109114A1, “SOLID STATE FORMS OF N-[2-[(I S)-1 -(3-ETHOXY-4-METHOXYPHENYL)-2-(METHYL SULFONYL)ETHYL]-2,3-DIHYDRO-1,3-DIOXO-L H-ISOINDOL-4-YL]ACETAMIDE AND PROCESS FOR PREPARATION THEREOF” (MSN LABORATORIES PRIVATE LIMITED, R&D CENTER, priority 2016, published 2020)

Experiments:
[1] = Hygroscopicity of crystalline form-M; assay type: physicochemical
Description: The crystalline form-M of compound of formula-1 of the present invention is non-hygroscopic in nature which is highly advantageous for the formulators.

[2] = Solid state stability of crystalline form-M at various conditions (stress, UV light, thermal, humidity); assay type: physicochemical
Method: The crystalline form-M of the present invention is stable at various conditions viz.,
a) Stress (10 ton pressure, 3 min) b) UV light (254 nm, 24 hrs) c) Thermal (60° C., 24 hrs) d) Hygroscopicity (75% RH, 24 hrs))

## CCOc1cc([C@@H](CS(C)(=O)=O)N2C(=O)c3cccc(NC(C)=O)c3C2=O)ccc1OC [crystalline form-M, N-[2-[(1S)-1-(3-ethoxy-4-methoxyphenyl)-2-(methylsulfonyl)ethyl]-2,3-dihydro-1,3-dioxo-1H-isoindol-4-yl]acetamide]
[1]
  hygroscopic nature: non-hygroscopic
[2]; Hygroscopicity (75% RH, 24 hrs)
  stability under hygroscopicity condition: stable
[2]; Stress (10 ton pressure, 3 min)
  stability under stress: stable
[2]; Thermal (60° C., 24 hrs)
  thermal stability: stable
[2]; UV light (254 nm, 24 hrs)
  stability under UV light: stable
